In paper PMC8041284, “Tunable Methacrylamides for Covalent Ligand Directed Release Chemistry” (Journal of the American Chemical Society, 2021):

Molecular target: T1, BTK (Homo sapiens, UniProt Q06187)
Test: biochemical
Details: read-out: BTK inhibition (%)

T1 sequence (Q06187 402-655 limits assumed): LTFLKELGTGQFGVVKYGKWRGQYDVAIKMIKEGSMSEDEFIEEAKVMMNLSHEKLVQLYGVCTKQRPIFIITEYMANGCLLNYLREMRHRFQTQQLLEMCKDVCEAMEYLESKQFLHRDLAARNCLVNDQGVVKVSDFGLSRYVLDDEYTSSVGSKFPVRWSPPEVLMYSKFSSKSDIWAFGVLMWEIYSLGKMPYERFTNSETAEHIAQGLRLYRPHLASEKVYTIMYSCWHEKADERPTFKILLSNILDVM

SMILES	inhibition at 10 µM [%]
O=[N+]([O-])c1ncc[nH]1 [PCM-0094820]	3.1
C=C1CC[C@H]2[C@@H](/C=C(/C)C(=O)[C@@]3(O)C[C@H](C)[C@H](O)[C@@H]3[C@H]1O)C2(C)C [PCM-0216650]	-9.3

Same assay, conditions: read-out: BTK inhibition (%), 0.75 uM BTK, […] probe 3l, 15 min preincubation

SMILES	inhibition at 10 µM [%]
NCc1c[nH]c(=S)n1[C@@H]1CCc2c(F)cc(F)cc2C1 [PCM-0214808]	4.7
CC(=O)C1=C(O)C=C2Oc3c(C(C)=O)c(O)c(C)c(O)c3[C@@]2(C)C1=O [PCM-0094808]	17.1
CC[C@H]1OC(=O)[C@H](C)[C@@H](O[C@H]2C[C@@](C)(OC)[C@@H](O)[C@H](C)O2)[C@H](C)[C@@H](O[C@@H]2O[C@H](C)C[C@H](N(C)C)[C@H]2O)[C@](C)(O)C[C@@H](C)/C(=N\OCOCCOC)[C@H](C)[C@@H](O)[C@]1(C)O [PCM-0214736]	3.9
CO/N=C(\C(=O)N[C@@H]1C(=O)N2C(C(=O)[O-])=C(C[n+]3ccn4ncccc43)CS[C@H]12)c1nsc(N)n1 [PCM-0216591]	10.8
NC[C@@H]1O[C@H](O[C@H]2[C@@H](O)[C@H](O[C@@H]3[C@@H](O)[C@H](N)C[C@H](N)[C@H]3O[C@H]3O[C@H](CO)[C@@H](O)[C@H](O)[C@H]3N)O[C@@H]2CO)[C@H](N)[C@@H](O)[C@@H]1O [PCM-0215214]	5.1
NC(=O)N1c2ccccc2CC(=O)c2ccccc21 [PCM-0086055]	-10.1
CC(C)(C)C[C@@H]1N[C@@H](C(=O)NC2CCC(O)CC2)[C@H](c2cccc(Cl)c2F)[C@]12C(=O)Nc1cc(Cl)ccc12 (stereo partly shown) [PCM-0215450]	21.6
CCCCCCNC(=O)n1cc(F)c(=O)[nH]c1=O [PCM-0065487]	-7
N#Cc1cnc(Nc2cc(NC[C@H]3CNCCO3)c(C(F)(F)F)cn2)cn1 [PCM-0214576]	-0.7
COC(=O)Nc1nc2ccc([S+]([O-])c3ccccc3)cc2[nH]1 (stereo not shown) [PCM-0086213]	17.9
CC[C@H]1OC(=O)[C@H](C)[C@@H](O[C@H]2C[C@@](C)(OC)[C@@H](O)[C@H](C)O2)[C@H](C)[C@@H](O[C@@H]2O[C@H](C)C[C@H](N(C)C)[C@H]2O)[C@](C)(O)C[C@@H](C)CN[C@H](C)[C@@H](O)[C@]1(C)O [PCM-0215099]	-13.2
C=CC(=O)N1C[C@H](Nc2ncnc3[nH]ccc23)CC[C@@H]1C [PCM-0215972]	95
Cc1cc(Nc2ncnc3ccc(NC4=NC(C)(C)CO4)cc23)ccc1Oc1ccn2ncnc2c1 [PCM-0215734]	71.7
COc1cccc(-c2cc(F)ccc2[C@H]2Cc3nc(N)nc(C)c3C(=O)N2)n1 [PCM-0215352]	2.3
CCC(C)(C)C(=O)O[C@H]1C[C@@H](C)C=C2C=C[C@H](C)[C@H](CC[C@@H]3C[C@@H](O)CC(=O)O3)[C@H]21 [PCM-0214653]	-13.1
CCCCCCCCCC(=O)N[C@@H](Cc1c[nH]c2ccccc12)C(=O)N[C@H](CC(N)=O)C(=O)N[C@@H](CC(=O)O)C(=O)N[C@@H]1C(=O)NCC(=O)N[C@@H](CCCN)C(=O)N[C@@H](CC(=O)O)C(=O)N[C@H](C)C(=O)N[C@@H](CC(=O)O)C(=O)NCC(=O)N[C@H](CO)C(=O)N[C@@H]([C@H](C)CC(=O)O)C(=O)N[C@@H](CC(=O)c2ccccc2N)C(=O)O[C@@H]1C [PCM-0095008]	-1.6
C[C@@H](O)[C@H]1C(=O)N2C(C(=O)O)=C([C@H]3CCCO3)S[C@H]12 [PCM-0215154]	-2.3
O=C(O)/C=C/c1ccc(O)cc1 [PCM-0214939]	-21.8
Cc1ccn[nH]1 [PCM-0215907]	4.6
Cc1cn([C@@H]2C[C@@H](O)[C@H](CO)O2)c(=O)[nH]c1=O [PCM-0095099]	-6.2
Nc1ncn([C@@H]2O[C@H](CO)[C@@H](O)[C@H]2O)c(=O)n1 [PCM-0064526]	-6.2
C=CC(=O)Nc1cccc(Oc2nc(Nc3ccc(N4CCN(C)CC4)cc3)nc3ccsc23)c1 [PCM-0215661]	105
N[C@@]1(C(=O)O)CS(=O)(=O)[C@H]2[C@H](C(=O)O)[C@H]21 [PCM-0215191]	9.4
Cc1cc(Cn2cnc3c2C[C@@H](C(=O)O)N(C(=O)C(c2ccccc2)c2ccccc2)C3)ccc1N(C)C [PCM-0215225]	6.2
Oc1c(F)cc(-c2cnccc2-c2ccc(N3CCOCC3)cc2)cc1F [PCM-0215582]	-12.4
CN(C)CCN(Cc1ccccc1)c1ccccn1 [PCM-0086274]	12.8
CCC(=O)O[C@]1(C(=O)CCl)[C@@H](C)C[C@H]2[C@@H]3C[C@H](F)C4=CC(=O)C=C[C@]4(C)[C@@]3(F)[C@@H](O)C[C@@]21C [PCM-0214768]	22.8

SMILES	inhibition at 10 µM [%]
COC(=O)[C@H](O)[C@@H](NC(=O)c1ccccc1)c1ccccc1 [PCM-0216282]	-5.4
C=CCSC[C@H](N)C(=O)O [PCM-0215956]	3.4
COc1cc(C)c(/C=C/C(C)=C/C=C/C(C)=C/C(=O)O)c(C)c1C [PCM-0086430]	10.9
CNC(=O)c1ccc(-c2cnc3ncc(Cc4ccc5ncccc5c4)n3n2)cc1F [PCM-0095370]	-24.7
O=Cc1ccccc1O[C@@H]1O[C@H](CO)[C@@H](O)[C@H](O)[C@H]1O [PCM-0215148]	-15.6
CCc1cccc(CC)c1NC(=O)N1Cc2[nH]nc(NC(=O)c3ccc(N4CCN(C)CC4)cc3)c2C1 [PCM-0095127]	65.5
NC(N)=Nc1nc(CSCC/C(N)=N/S(N)(=O)=O)cs1 [PCM-0214735]	-26.2
COc1cc(/C=C/C(=O)O[C@H]2[C@H](O)[C@@H](CO)O[C@@]2(CO)O[C@H]2O[C@H](CO)[C@@H](O)[C@H](O)[C@H]2O)ccc1O [PCM-0216331]	-3.1
COc1cc(C(C)=O)ccc1O [PCM-0094831]	9
CN(Cc1cc(Br)cc(Br)c1N)C1CCCCC1 [PCM-0086201]	29.6
CN(C)c1ccc2c(c1)Sc1cc(N(C)C)ccc1N2 [PCM-0215668]	72.6
CC1=C(C/C=C(\C)CCC[C@H](C)CCC[C@H](C)CCCC(C)C)C(=O)c2ccccc2C1=O [PCM-0216261]	7.8
CN(C)CCC(c1ccc(Cl)cc1)c1ccccn1 (stereo not shown) [PCM-0064500]	6.9
CN1CCN(c2ccc(-c3ccncc3-c3cc(F)c(O)c(F)c3)cc2)CC1 [PCM-0215608]	6.2
Cc1ccc(NCCCc2ccccc2)c(N)c1 [PCM-0095790]	17
CCOCC(O)COc1ccc(NC(=O)CC[S+](C)C)cc1 (stereo not shown) [PCM-0095295]	0
Cn1cnc2c(F)c(Nc3ccc(Br)cc3F)c(C(=O)NOCCO)cc21 [PCM-0215228]	22.8
CCCCS(=O)(=O)N[C@@H](Cc1ccc(OCCCCC2CCNCC2)cc1)C(=O)O [PCM-0215839]	-1.5
CNC(=O)c1ccc(N2C(=S)N(c3ccc(C#N)c(C(F)(F)F)c3)C(=O)C2(C)C)cc1F [PCM-0095003]	-10.3
Cc1ncc(CCCN(C)C)cc1Nc1ncc2c(n1)-c1ccc(C(F)(F)F)cc1NC(=S)C2 [PCM-0214732]	24.1
Nc1ccc(-c2cccc(C(=O)Nc3cnc4nc(N5CCOCC5)oc4c3)n2)cn1 [PCM-0215899]	2.1
COc1ccccc1OCCN [PCM-0216626]	-11.6
NC[C@H]1O[C@H](O[C@H]2[C@H](O[C@@H]3O[C@H](CO)[C@@H](O)[C@H]3O)[C@@H](O)[C@H](N)C[C@@H]2N)[C@H](N)[C@@H](O)[C@@H]1O [PCM-0215219]	25.5
C#CC[C@H](c1nc2cc(Cl)ccc2c(=O)n1Nc1ccccc1)N(CCCN)C(=O)c1cccc(Cl)c1F [PCM-0095802]	52.5
Nc1nc(N)c2nc(-c3cccc(O)c3)c(-c3cccc(O)c3)nc2n1 [PCM-0094971]	55.2
O=C(O)Cc1ccc(O)cc1 [PCM-0215121]	25.7
O=C(Nc1cc(C(F)(F)F)cc(C(F)(F)F)c1)c1cc(Cl)ccc1O [PCM-0095509]	42.8

Molecular target: T1, BTK
Test: not given
Details: 0.75 uM BTK, […] probe 3l, 15 min preincubation, 10 µM, inhibitor, BTK inhibition (%)

SMILES	BTK inhibition (%)
O=C(O)O [PCM-0216262]	-6.2
Nc1nc2[nH]cc(CCc3ccc(C(=O)N[C@@H](CCC(=O)O)C(=O)O)cc3)c2c(=O)[nH]1 [PCM-0090283]	2.6
O=C1O[C@H]([C@@H](O)CO)C(O)=C1O [PCM-0215215]	-6.8
C=C[C@]1(C)C[C@@H](OC(=O)CSCCN(CC)CC)[C@]2(C)[C@H](C)CC[C@]3(CCC(=O)[C@H]32)[C@@H](C)[C@@H]1O [PCM-0215106]	-8.5

Same assay, conditions: 0.75 uM BTK, […] probe 3l, 15 min preincubation; 10 µM; inhibitor

SMILES	BTK inhibition (%)
CC(C)=CCC[C@]1(C)C=Cc2c(O)c3c(c(CC=C(C)C)c2O1)O[C@]12C(=C[C@@H]4C[C@H]1C(C)(C)O[C@@]2(C/C=C(/C)C(=O)O)C4=O)C3=O [PCM-0214728]	-1.6
CC(C)[C@]12O[C@H]1[C@@H]1O[C@]13[C@]1(O[C@H]1C[C@H]1C4=C(CC[C@@]13C)C(=O)OC4)[C@@H]2O [PCM-0214731]	6.2
CC(C)c1ccc(C=O)cc1 [PCM-0216001]	-18.5
CCN(Cc1ccc(Cl)nc1)/C(=C/[N+](=O)[O-])NC [PCM-0214807]	7
CC[N+](C)(CC)CCOC(=O)C(O)(c1ccccc1)c1ccccc1 [PCM-0214829]	-19.5
COC(=O)Nc1nc2ccccc2[nH]1 [PCM-0214885]	-9.3
CN1CCN(C(=O)C2C3CCC(O3)C2C(=O)O)CC1 (stereo not shown) [PCM-0215448]	-11.1
c1cc2c(cc1[C@H]1OC[C@H]3[C@@H]1CO[C@H]3c1ccc3c(c1)OCO3)OCO2 [PCM-0216178]	29.3

Same assay, conditions: 10 µM; inhibitor

SMILES	BTK inhibition (%)
CN1CCc2cc3c(cc2[C@H]1[C@@H]1OC(=O)c2c1ccc1c2OCO1)OCO3 [PCM-0095582]	-0.8
C[C@H]1CC[C@@H]2N(C1)C[C@H]1[C@@H]3C[C@H]4[C@@H](C[C@H](O)[C@H]5C[C@@H](O)CC[C@@]54C)[C@@H]3CC[C@@H]1[C@]2(C)O [PCM-0216522]	-15.4
